Laboratory results from PubChem BioAssay AID1963953.
Activity calls are given as the source filed them.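 How the source made its calls: active means compounds cutting recovered intracellular Salmonella colonies below 0.7 of the DMSO level; inactive means the rest.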

Tested on: HeLa infected S. Typhimurium SL1344, CFU, 6 h
Assay: reduction of bacterial load in infected HeLa – cell-based, colony forming units, SL1344 (AID 1963953)
Details: at 20 µM; active compounds read low

In the case of `CCC(C)(C)C(=O)C(=O)N1CCCC[C@H]1C(=O)N[C@H](CCc1ccc(OC)cc1)C(=O)N1[C@@H]2CC[C@H]1CC(NC(C)=O)C2` (stereo not given in full), the normalized CFU (DMSO = 1) is reported as 0.77 (inactive).
Compound `CCC(C)(C)C(=O)C(=O)N1CCCC[C@H]1C(=O)N[C@H](CCc1ccc(OC)cc1)C(=O)N1[C@@H]2CC[C@H]1CC(Nc1nc(NCCc3ccccc3)nc(N3CCn4ncnc4C3)n1)C2` (stereo not given in full) has a normalized CFU (DMSO = 1) of 0.47.
For `CS(C)=O`, the normalized CFU (DMSO = 1) was 1 (inactive).
In the case of `CC(=O)N1[C@@H]2CC[C@H]1CC(Nc1nc(NCCc3sc(N)nc3C)nc(N3CCn4ncnc4C3)n1)C2` (stereo not given in full), the normalized CFU (DMSO = 1) is reported as 0.97 (inactive).
`CCC(C)(C)C(=O)C(=O)N1CCCC[C@H]1C(=O)N[C@H](CCc1ccc(OC)cc1)C(=O)N1[C@@H]2CC[C@H]1CC(Nc1nc(NCCc3sc(N)nc3C)nc(N3CCn4ncnc4C3)n1)C2` (stereo not given in full) gave a normalized CFU (DMSO = 1) of 0.31.
